Some test systems named below: SK-MEL-2 melanoma; HOP-92 NSCLC; HS 578T breast; TK-10 renal; MOLT-4 leukemia; OVCAR-4 ovarian; MALME-3M melanoma; SF-295 CNS; LOX IMVI melanoma; SF-268 CNS.
Experiment in all cases: DTP human tumour cell line panel, 48 h

“And” between values parts separate entries of the source, which are not always exact repeats. Equal values may be shown once.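 Briefly, cells in 96-well plates were exposed to five compound concentrations for 48 h, and endpoints were estimated by linear interpolation. GI50 = concentration required for 50% inhibition of growth. Definition used: TGI = concentration required for complete inhibition of growth.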

In general, TGI refers to the concentration giving total growth inhibition. Lower therefore signals greater sensitivity of the cells. The GI50 is the concentration that inhibits growth by half.

Take `Cn1c(=O)c2[nH]c(CCS)nc2n(C)c1=O`: the TGI with SK-MEL-2 melanoma was over 100 µM; in the test with HOP-92 NSCLC, over 100 µM; in the test with HS 578T breast, 99.7 µM; in the test with TK-10 renal it was over 100 µM; with MOLT-4 leukemia it was over 100 µM; with OVCAR-4 ovarian it was over 100 µM. Moreover, the TGI in the test on MALME-3M melanoma, in the test on SF-295 CNS, with LOX IMVI melanoma and in the test on SF-268 CNS was over 100 µM in each case.

As to `Cc1nc2sc(C(=O)Nc3cccc(Cl)c3C)c(N)c2cc1C(O)c1ccccc1` (configuration not stated), the concentration for 50% growth inhibition (GI50) with SK-MEL-2 melanoma is 0.0754 µM; with HOP-92 NSCLC it was 2.31 µM; in the test on HS 578T breast, 0.0239 µM; with TK-10 renal it was 2.04 µM; in the test on MOLT-4 leukemia, 0.0673 µM; in the test on OVCAR-4 ovarian, 0.246 µM. Besides, the GI50 in the test on MALME-3M melanoma is 0.0536 µM; with SF-295 CNS it was 0.0333 µM; in the test on LOX IMVI melanoma it was 0.0599 µM; with SF-268 CNS it was 0.318 µM. Also, the concentration for total growth inhibition (TGI) with SK-MEL-2 melanoma was 12.6 µM; with HOP-92 NSCLC, 14.2 µM; with HS 578T breast, 0.497 µM; in the test on TK-10 renal, 25.6 µM; in the test with MOLT-4 leukemia it was 19.7 µM; with OVCAR-4 ovarian, 26.7 µM. In addition, the concentration for total growth inhibition (TGI) was 18.5 µM in the test with MALME-3M melanoma, 5.08 µM in the test on SF-295 CNS, 10.9 µM in the test with LOX IMVI melanoma and 11.7 µM in the test on SF-268 CNS.

For the compound `COc1ccc(/C=C\c2cc(OC)c(OC)c(OC)c2)cc1N/C=C\C(=O)c1c[nH]c2ccccc12`, the GI50 in the test on SK-MEL-2 melanoma was under 0.01 µM; in the test on HOP-92 NSCLC, 0.0137 µM; in the test on HS 578T breast, under 0.01 µM; with TK-10 renal, 40.2 µM; in the test with MOLT-4 leukemia it was under 0.01 µM; with OVCAR-4 ovarian, under 0.01 µM. The GI50 in the test with MALME-3M melanoma is 5 µM; in the test with SF-295 CNS, under 0.01 µM; in the test on LOX IMVI melanoma, under 0.01 µM; in the test on SF-268 CNS, under 0.01 µM. For the same compound, the TGI with SK-MEL-2 melanoma was 20.3 µM; in the test with HOP-92 NSCLC it was 3.64 µM; in the test on HS 578T breast it was over 100 µM; in the test with TK-10 renal, over 100 µM; in the test with MOLT-4 leukemia it was over 100 µM; in the test with OVCAR-4 ovarian it was over 100 µM. In addition, the total growth inhibition concentration (TGI) was 57.2 µM with MALME-3M melanoma, over 100 µM with SF-295 CNS, over 100 µM in the test with LOX IMVI melanoma and over 100 µM in the test with SF-268 CNS.

With `C#CCn1c2c(c3ccccc3c1=O)C(=O)c1ccccc1-2`, the total growth inhibition concentration (TGI) was over 100 µM in the test on SK-MEL-2 melanoma; over 100 µM in the test with HOP-92 NSCLC; 34.8 µM with HS 578T breast; 61.6 µM in the test on TK-10 renal; over 100 µM in the test with MOLT-4 leukemia; 33.1 µM in the test on OVCAR-4 ovarian. Also, the TGI in the test with MALME-3M melanoma was over 100 µM; in the test on SF-295 CNS, 94.3 µM; in the test with LOX IMVI melanoma it was over 100 µM; in the test on SF-268 CNS, 34.1 µM.

For `O=C(Oc1c(Cl)c(Cl)c(Cl)c(Cl)c1Cl)C1CCCN1C(=O)OCc1ccccc1` (configuration not stated), the GI50 with SK-MEL-2 melanoma was 2.28 µM; with HOP-92 NSCLC it was 1.99 µM; in the test on HS 578T breast, 2.92 µM; in the test on TK-10 renal, 3.13 µM; in the test on MOLT-4 leukemia it was 3.1 µM; in the test with OVCAR-4 ovarian it was 2.66 µM. For the same compound, the GI50 is 3.62 µM with MALME-3M melanoma, 2.75 µM in the test on SF-295 CNS, 2.85 µM with LOX IMVI melanoma and 4 µM in the test on SF-268 CNS. Moreover, the concentration for total growth inhibition (TGI) was 4.49 µM in the test on SK-MEL-2 melanoma; 6.1 µM in the test on HOP-92 NSCLC; 10.4 µM in the test on HS 578T breast; 8.85 µM with TK-10 renal; 9.07 µM in the test with MOLT-4 leukemia; 10.6 µM in the test with OVCAR-4 ovarian. In addition, the concentration for total growth inhibition (TGI) is 11.4 µM in the test on MALME-3M melanoma, 8.47 µM in the test with SF-295 CNS, 8.6 µM with LOX IMVI melanoma and 15.6 µM in the test with SF-268 CNS.

Regarding `COc1cc(NC(=O)c2cc3ccccc3cc2O)c(OC)cc1Cl`, the GI50 with SK-MEL-2 melanoma was 2.74 µM; with HOP-92 NSCLC, 1.56 µM; in the test with HS 578T breast it was 2.11 µM; in the test with TK-10 renal, 3.64 µM; in the test on MOLT-4 leukemia, 2.27 µM; in the test on OVCAR-4 ovarian, 2.12 µM. In addition, the concentration for 50% growth inhibition (GI50) with MALME-3M melanoma is 0.335 µM; with SF-295 CNS it was 1.8 µM; with LOX IMVI melanoma, 2.47 µM; in the test on SF-268 CNS, 3.42 µM. The TGI with SK-MEL-2 melanoma turned out to be 6.95 µM; with HOP-92 NSCLC, 4.95 µM; in the test with HS 578T breast, 8.85 µM; in the test on TK-10 renal, 7.7 µM; in the test with OVCAR-4 ovarian, 8.21 µM; in the test on MALME-3M melanoma, 2.87 µM. Also, the total growth inhibition concentration (TGI) in the test with SF-295 CNS is 4.54 µM; in the test with LOX IMVI melanoma, over 100 µM; in the test on SF-268 CNS, 14.4 µM.

Take `O=C(Cc1ccc(-c2ccc(OCCN3CCOCC3)cc2)cn1)NCc1ccccc1`: the concentration for 50% growth inhibition (GI50) in the test with SK-MEL-2 melanoma is 0.105 µM and 0.06 µM; in the test on HOP-92 NSCLC, 0.0543 µM and 0.353 µM; in the test on HS 578T breast, 0.0381 µM and 0.0284 µM; in the test on MOLT-4 leukemia, 0.0999 µM and 0.0685 µM; in the test with MALME-3M melanoma, 0.15 µM; in the test on SF-295 CNS, 0.0296 µM and 0.0347 µM. In addition, the 50% growth inhibitory concentration (GI50) with LOX IMVI melanoma was 0.0612 µM and 0.0636 µM; in the test with SF-268 CNS, 0.083 µM and 0.332 µM. Moreover, the TGI was over 100 µM in the test with SK-MEL-2 melanoma; 8.59 µM and > 7.16 µM in the test with HOP-92 NSCLC; over 100 µM in the test with HS 578T breast; over 100 µM with TK-10 renal; over 100 µM with MOLT-4 leukemia; over 100 µM in the test with OVCAR-4 ovarian. Also, the TGI in the test with MALME-3M melanoma, with SF-295 CNS, in the test on LOX IMVI melanoma and in the test with SF-268 CNS was over 100 µM in each case.

For `COC(=O)C[C@@H]1CC=CC(=O)/C1=C(O)/C=C/c1ccccc1`, the GI50 was 1.63 µM with SK-MEL-2 melanoma; 1.33 µM in the test with HOP-92 NSCLC; 3.49 µM with HS 578T breast; 0.916 µM with TK-10 renal; 1.68 µM in the test with MOLT-4 leukemia; 1.54 µM in the test with OVCAR-4 ovarian. The GI50 is 1.56 µM in the test with MALME-3M melanoma, 2.05 µM in the test with SF-295 CNS, 0.172 µM in the test with LOX IMVI melanoma and 1.37 µM in the test with SF-268 CNS. The TGI in the test on SK-MEL-2 melanoma was 3.56 µM; in the test with HOP-92 NSCLC, 2.82 µM; in the test with HS 578T breast, over 49.2 µM; in the test with TK-10 renal, 5.69 µM; in the test with MOLT-4 leukemia it was 5.46 µM; in the test with OVCAR-4 ovarian, 2.96 µM. Besides, the concentration for total growth inhibition (TGI) in the test with MALME-3M melanoma is 3.33 µM; in the test on SF-295 CNS, 4.42 µM; with LOX IMVI melanoma it was 0.332 µM; in the test on SF-268 CNS, 3.75 µM.

The record behind these values is PubChem BioAssay (NCI).
